Laboratory results: publication PMC9866693, “Novel Benzimidazole Derived Imine Ligand and Its Co(III) and Cu(II) Complexes as Anticancer Agents: Chemical Synthesis, DFT Studies, In Vitro and In Vivo Biological Investigations” (Pharmaceuticals, 2023)

How the values were obtained:
[1] = system: Ehrlich–Lettre ascites carcinoma (EAC) cell line; test: MTT anti-proliferative assay, EAC; assay type: cell-based; conditions: 48 h, incubated for 2 days, read-out: IC50 against EAC
Method: (§1) In vitro anti-proliferative assays of the cultured cell lines A549, EAC, SIHA and NIH3T3, under laboratory conditions, were performed. The cells were developed in Dulbecco’s Modified Eagle Medium (DMEM) (Gibco-Invitrogen, Austin, TX, USA), in addition with heat-inactivated Foetel Bovine Serum (Invitrogen, Waltham, MA, USA), Pen Strep and followed by the addition of NaHCO3 (0.40%). The resulting component was incubated at 37 °C and maintained at 97% humidity and 90% air atmosphere. Exactly 10 µM of the synthesized ligand HBMF and its complexes (C1–C4), prepared using DMSO as a solvent, was used initially to assess their cytotoxicity and anti-proliferative activity in vitro using the MTT assay as described previously. 5-fluorouracil was used as a positive control and an appropriate vehicle control.
(§2) The various cell lines, such as A549, EAC, SIHA and NI3T3, were used initially to investigate the extent of preliminary proliferation against the MTT assay. The synthesized ligand, the complexes, and 5-fluorouracil were treated with all four cell lines as mentioned above. The cells were treated in the absence and presence of the ligand and its complexes and were incubated for 2 days. The effect of the proliferating cells and the color change was investigated by adding 5 mg/mL of 3-(4,5-Dimethylthiazol-2-yl)-2,5-Diphenyltetrazolium Bromide (MTT) reagent.

A549 cell line = test: MTT anti-proliferative assay, A549; assay type: cell-based; conditions: Homo sapiens, A549, 48 h, incubated for 2 days, read-out: IC50 against A549
Method: as §1, §2

SIHA cell line = test: MTT anti-proliferative assay, SIHA; assay type: cell-based; conditions: Homo sapiens, 48 h, incubated for 2 days, read-out: IC50 against SIHA
Method: as §1, §2

NIH3T3 cell line = test: MTT anti-proliferative assay, NIH3T3; assay type: cell-based; conditions: Mus musculus, NIH3T3, 48 h, incubated for 2 days, read-out: IC50 against NIH3T3
Method: as §1, §2

[2] = Solubility and stability observations; assay type: physicochemical
Excerpt: Scheme 1 depicts the general route for the preparation of HBMF. Neutralization of the aqueous solution of 2-(aminomethyl) benzimidazole hydrochloride (0.100 g, 0.4543 mmol) was done in the first step of synthesis using an aqueous solution of potassium carbonate (0.0753 g, 0.5451 mmol) and then mixed with a methanolic solution of 5-fluorosalicyladihyde (0.0630 g, 0.4543 mmol). The resulting mixture was stirred at room temperature using a magnetic stirrer. The yellow precipitate obtained was filtered off and washed with water followed by petroleum ether and dried under vacuum. The completion of the reaction was monitored on pre-coated silica gel plates by the thin layer chromatography (TLC) method using chloroform and methanol as the solvent system in the ratio (9:1). The Schiff base thus obtained was insoluble in water but soluble in methanol, DMSO, etc. Elemental analysis for HBMF (C15H11FN3O): Calculated (%): C, 62.91; H, 4.33; F, 7.05; N, 14.59; O, 5.90. Found (%): C, 62.95; H, 4.36; F, 7.09; N, 14.65; O, 5.94. ^1H NMR (CDCl3, 400 MHz) ð: 5.09 [C1] (s, 2H, CH2); 6.86 [C7 and C6] (dd, 2H, Ar-H); 7.04–7.06 [C12 and C13] (t, 1H, Ar-H); 7.25 [C4] (d, 2H, Ar-H); 7.57 [C11] (d, 1H, Ar-H); 7.58 [C14] […]
Millimolar solutions of all the prepared metal complexes (C1-0.599, C2-0.615, C3-0.595, and C4-0.629 […]) were prepared using DMSO solvent and the conductance was measured (Table S1). […]

Compound | IC50 [1] [µM] | IC50 (A549 cell line) [µM] | IC50 (SIHA cell line) [µM] | IC50 (NIH3T3 cell line) [µM] | Solubility in methanol, DMSO ([2]; methanol, DMSO, etc.) | Solubility in water ([2]; water)
O=c1[nH]cc(F)c(=O)[nH]1 [5‐FU, 5-fluorouracil, reference compound] | 6.1 ± 1.8 | 7.2 ± 0.5 | 6.2 ± 0.7 | 7.8 |  | 
Oc1ccc(F)cc1/C=N/Cc1nc2ccccc2[nH]1 [HBMF, 2-((E)-((1H-benzo[d]-2-yl)methylimino)methyl)-4-fluorophenol] | 48 ± 0.3 | 54.21 ± 0.4 | 53.4 ± 0.7 | 52.6 ± 0.4 | soluble | insoluble
